Measured values reported in ChEMBL document CHEMBL1201862, “PubChem BioAssay data set” (2004).
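Following 48 hours of exposure in 96-well plates, responses at five concentrations were used to interpolate endpoints linearly. GI50 = concentration required for 50% inhibition of growth.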 Calls of active or inactive are those of the source. No stated cut-off is given here; in the data, active = GI50 up to about 1.1 µM and inactive = higher.

Columns and labels:
Assay in all cases: DTP human tumour cell line panel, 48 h
786-0 = tested on: 786-0
A498 = tested on: A498
A549 = tested on: A549
ACHN = tested on: ACHN
CAKI-1 = tested on: CAKI-1
CCRF-CEM = tested on: CCRF-CEM
COLO 205 = tested on: COLO 205
DLD-1 = tested on: DLD-1
DMS-114 = tested on: DMS-114
DMS-273 = tested on: DMS-273
EKVX = tested on: EKVX
HCC 2998 = tested on: HCC 2998
HCT-116 = tested on: HCT-116
HCT-15 = tested on: HCT-15
HOP-18 = tested on: HOP-18
HOP-62 = tested on: HOP-62
HOP-92 = tested on: HOP-92
HT-29 = tested on: HT-29
IGROV-1 = tested on: IGROV-1
K562 = tested on: K562
KM-20L2 = tested on: KM-20L2
KM12 = tested on: KM12
LOX IMVI = tested on: LOX IMVI
LXFL 529 = tested on: LXFL 529
M14 = tested on: M14
M19-MEL = tested on: M19-MEL
MOLT-4 = tested on: MOLT-4
Malme-3M = tested on: Malme-3M
NCI-H226 = tested on: NCI-H226
NCI-H23 = tested on: NCI-H23
NCI-H460 = tested on: NCI-H460
NCI-H522 = tested on: NCI-H522
OVCAR-3 = tested on: OVCAR-3
OVCAR-4 = tested on: OVCAR-4
OVCAR-5 = tested on: OVCAR-5
OVCAR-8 = tested on: OVCAR-8
RPMI-8226 = tested on: RPMI-8226
RXF 393 = tested on: RXF 393
SF-268 = tested on: SF-268
SF-295 = tested on: SF-295
SF-539 = tested on: SF-539
SK-MEL-28 = tested on: SK-MEL-28
SK-MEL-2 = tested on: SK-MEL-2
SK-MEL-5 = tested on: SK-MEL-5
SK-OV-3 = tested on: SK-OV-3
SN12C = tested on: SN12C
SNB-19 = tested on: SNB-19
SNB-75 = tested on: SNB-75
SNB-78 = tested on: SNB-78
SR = tested on: SR
SW-620 = tested on: SW-620
TK-10 = tested on: TK-10
U-251 = tested on: U-251
UACC-257 = tested on: UACC-257
UACC-62 = tested on: UACC-62
UO-31 = tested on: UO-31
XF498 = tested on: XF498
HL-60 = tested on: HL-60

Q: What does the source list for `Cc1c(Cl)cccc1N1C(=O)C(Cl)=C(Cl)C1=O`?
A: GI50 (786-0): 98.6 µM (inactive); GI50 (A498): > 100 µM (inactive); GI50 (A549): > 100 µM (inactive); GI50 (ACHN): > 100 µM (inactive); GI50 (CAKI-1): > 51.8 µM (inactive); GI50 (CCRF-CEM): 16.4 µM (inactive); GI50 (COLO 205): > 65.9 µM (inactive); GI50 (DLD-1): > 66.8 µM (inactive); GI50 (DMS-114): > 100 µM (inactive); GI50 (DMS-273): > 100 µM (inactive); GI50 (EKVX): > 100 µM (inactive); GI50 (HCC 2998): > 100 µM (inactive); GI50 (HCT-116): > 100 µM (inactive); GI50 (HCT-15): > 76.9 µM; GI50 (HOP-18): > 100 µM (inactive); GI50 (HOP-62): > 100 µM (inactive); GI50 (HOP-92): > 73.8 µM (inactive); GI50 (HT-29): > 100 µM (inactive); GI50 (IGROV-1): > 100 µM (inactive); GI50 (K562): 17.9 µM (inactive); GI50 (KM-20L2): > 100 µM (inactive); GI50 (KM12): > 100 µM (inactive); GI50 (LOX IMVI): > 100 µM (inactive); GI50 (LXFL 529): > 75.7 µM (inactive); GI50 (M14): > 100 µM (inactive); GI50 (M19-MEL): > 100 µM (inactive); GI50 (MOLT-4): 17.1 µM (inactive); GI50 (Malme-3M): > 100 µM (inactive); GI50 (NCI-H226): > 100 µM (inactive); GI50 (NCI-H23): > 100 µM (inactive); GI50 (NCI-H460): > 100 µM (inactive); GI50 (NCI-H522): 13.5 µM (inactive); GI50 (OVCAR-3): > 100 µM (inactive); GI50 (OVCAR-4): > 100 µM (inactive); GI50 (OVCAR-5): > 100 µM (inactive); GI50 (OVCAR-8): > 100 µM (inactive); GI50 (RPMI-8226): 43 µM (inactive); GI50 (RXF 393): 44.4 µM (inactive); GI50 (SF-268): > 100 µM (inactive); GI50 (SF-295): > 100 µM (inactive); GI50 (SF-539): > 100 µM (inactive); GI50 (SK-MEL-28): > 100 µM (inactive); GI50 (SK-MEL-2): > 100 µM (inactive); GI50 (SK-MEL-5): > 100 µM (inactive); GI50 (SK-OV-3): > 100 µM (inactive); GI50 (SN12C): > 100 µM (inactive); GI50 (SNB-19): > 100 µM (inactive); GI50 (SNB-75): > 100 µM (inactive); GI50 (SNB-78): > 100 µM (inactive); GI50 (SR): 34.2 µM (inactive); GI50 (SW-620): > 58.2 µM (inactive); GI50 (TK-10): > 100 µM (inactive); GI50 (U-251): > 100 µM (inactive); GI50 (UACC-257): > 100 µM (inactive); GI50 (UACC-62): > 100 µM (inactive); GI50 (UO-31): > 100 µM (inactive); GI50 (XF498): 66.7 µM (inactive)

Q: With `Nc1nc2c(ncn2CC(CO)CC(c2ccccc2)P(=O)(O)O)c(=O)[nH]1` (stereo not drawn) as the compound, how does the GI50 (786-0) read?
A: > 100 µM (inactive)

Q: What about the GI50 (A498) of the same compound?
A: > 100 µM (inactive)

Q: What about the GI50 (A549) of the same compound?
A: > 100 µM (inactive)

Q: And the GI50 (ACHN)?
A: > 100 µM (inactive)

Q: And the GI50 (CAKI-1)?
A: > 100 µM (inactive)

Q: What about the GI50 (CCRF-CEM) of the same compound?
A: > 100 µM (inactive)

Q: What about the GI50 (COLO 205) of the same compound?
A: > 100 µM (inactive)

Q: What about the GI50 (DLD-1) of the same compound?
A: > 100 µM (inactive)

Q: And the GI50 (DMS-114)?
A: > 100 µM (inactive)

Q: And the GI50 (DMS-273)?
A: > 100 µM (inactive)

Q: What about the GI50 (EKVX) of the same compound?
A: > 100 µM (inactive)

Q: What about the GI50 (HCC 2998) of the same compound?
A: > 100 µM (inactive)

Q: And the GI50 (HCT-116)?
A: > 100 µM (inactive)

Q: What about the GI50 (HCT-15) of the same compound?
A: > 100 µM

Q: And the GI50 (HL-60)?
A: > 100 µM (inactive)

Q: What about the GI50 (HOP-18) of the same compound?
A: > 100 µM (inactive)

Q: What about the GI50 (HOP-62) of the same compound?
A: > 100 µM (inactive)

Q: What about the GI50 (HOP-92) of the same compound?
A: > 100 µM (inactive)

Q: And the GI50 (HT-29)?
A: > 100 µM (inactive)

Q: What about the GI50 (IGROV-1) of the same compound?
A: > 100 µM (inactive)

Q: What about the GI50 (K562) of the same compound?
A: > 100 µM (inactive)

Q: What about the GI50 (KM-20L2) of the same compound?
A: > 100 µM (inactive)

Q: What about the GI50 (KM12) of the same compound?
A: > 100 µM (inactive)

Q: What about the GI50 (LOX IMVI) of the same compound?
A: > 100 µM (inactive)

Q: And the GI50 (LXFL 529)?
A: > 100 µM (inactive)

Q: What about the GI50 (M14) of the same compound?
A: > 100 µM (inactive)

Q: And the GI50 (M19-MEL)?
A: > 100 µM (inactive)

Q: And the GI50 (MOLT-4)?
A: > 100 µM (inactive)

Q: What about the GI50 (Malme-3M) of the same compound?
A: > 100 µM (inactive)

Q: And the GI50 (NCI-H226)?
A: > 100 µM (inactive)

Q: What about the GI50 (NCI-H23) of the same compound?
A: > 100 µM (inactive)

Q: And the GI50 (NCI-H460)?
A: > 100 µM (inactive)

Q: What about the GI50 (NCI-H522) of the same compound?
A: > 100 µM (inactive)

Q: And the GI50 (OVCAR-3)?
A: > 100 µM (inactive)

Q: What about the GI50 (OVCAR-5) of the same compound?
A: > 100 µM (inactive)

Q: And the GI50 (OVCAR-8)?
A: > 100 µM (inactive)

Q: And the GI50 (RPMI-8226)?
A: > 100 µM (inactive)

Q: What about the GI50 (RXF 393) of the same compound?
A: > 100 µM (inactive)

Q: And the GI50 (SF-268)?
A: > 100 µM (inactive)

Q: And the GI50 (SF-295)?
A: > 100 µM (inactive)

Q: And the GI50 (SF-539)?
A: > 100 µM (inactive)

Q: What about the GI50 (SK-MEL-28) of the same compound?
A: > 100 µM (inactive)

Q: And the GI50 (SK-MEL-2)?
A: > 100 µM (inactive)

Q: And the GI50 (SK-MEL-5)?
A: > 100 µM (inactive)

Q: What about the GI50 (SK-OV-3) of the same compound?
A: > 100 µM (inactive)

Q: What about the GI50 (SN12C) of the same compound?
A: > 100 µM (inactive)

Q: What about the GI50 (SNB-19) of the same compound?
A: > 100 µM (inactive)

Q: What about the GI50 (SNB-78) of the same compound?
A: > 100 µM (inactive)

Q: And the GI50 (SR)?
A: > 100 µM (inactive)

Q: And the GI50 (SW-620)?
A: > 100 µM (inactive)

Q: What about the GI50 (TK-10) of the same compound?
A: > 100 µM (inactive)

Q: What about the GI50 (U-251) of the same compound?
A: > 100 µM (inactive)

Q: What about the GI50 (UACC-257) of the same compound?
A: > 100 µM (inactive)

Q: And the GI50 (UACC-62)?
A: > 100 µM (inactive)

Q: And the GI50 (UO-31)?
A: > 100 µM (inactive)

Q: And the GI50 (XF498)?
A: > 100 µM (inactive)
